According to US12686673B2 (Blueprint Medicines Corporation, priority 2020, dated 2026):
Where a name gives a salt, the structure may show the parent alone. Read-outs that look alike come from different tables or passages of the source.

Legend:
Format in all cases: cell-based
A431 cells = assay: Cellular proliferation (Alamar Blue) assay, A431
[1] = molecular target: EGFR (A767_dupASV) expressing Ba/F3 stable cell line (Homo sapiens, UniProt P00533, DUP767-769, cells depend on it); assay: Cellular proliferation (Alamar Blue) assay, EGFR A767_dupASV Ba/F3; conditions: 72 hr, read-out: A767 IC50
Summary of the method: (§1)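 Ba/F3 stable lines (15,000 cells/well, RPMI + 10% FBS) seeded 16–18 h, then treated 72 h at 37 °C with compound, final 10–0.0005 μM in 3-fold dilutions. Viability read by Alamar Blue after 3 h incubation.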

[2] = molecular target: EGFR(D770_N771insSVD) expressing Ba/F3 stable cell line (Homo sapiens, UniProt P00533, DUP768-770, cells depend on it); assay: Cellular proliferation (Alamar Blue) assay, EGFR D770_N771insSVD Ba/F3; conditions: 72 hr, read-out: D770 IC50
Summary of the method: as §1

[3] = Homo sapiens, A-431; A431 cells, Alamar Blue, 72 hr; read-out: A431 IC50
[4] = Homo sapiens, A-431; A431 cells, 72 hr, Alamar Blue; read-out: A431 IC50

EGFR (A767_dupASV) expressing Ba/F3 stable cell line, sequence (P00533 with tags, fused parts or gaps DUP767-769): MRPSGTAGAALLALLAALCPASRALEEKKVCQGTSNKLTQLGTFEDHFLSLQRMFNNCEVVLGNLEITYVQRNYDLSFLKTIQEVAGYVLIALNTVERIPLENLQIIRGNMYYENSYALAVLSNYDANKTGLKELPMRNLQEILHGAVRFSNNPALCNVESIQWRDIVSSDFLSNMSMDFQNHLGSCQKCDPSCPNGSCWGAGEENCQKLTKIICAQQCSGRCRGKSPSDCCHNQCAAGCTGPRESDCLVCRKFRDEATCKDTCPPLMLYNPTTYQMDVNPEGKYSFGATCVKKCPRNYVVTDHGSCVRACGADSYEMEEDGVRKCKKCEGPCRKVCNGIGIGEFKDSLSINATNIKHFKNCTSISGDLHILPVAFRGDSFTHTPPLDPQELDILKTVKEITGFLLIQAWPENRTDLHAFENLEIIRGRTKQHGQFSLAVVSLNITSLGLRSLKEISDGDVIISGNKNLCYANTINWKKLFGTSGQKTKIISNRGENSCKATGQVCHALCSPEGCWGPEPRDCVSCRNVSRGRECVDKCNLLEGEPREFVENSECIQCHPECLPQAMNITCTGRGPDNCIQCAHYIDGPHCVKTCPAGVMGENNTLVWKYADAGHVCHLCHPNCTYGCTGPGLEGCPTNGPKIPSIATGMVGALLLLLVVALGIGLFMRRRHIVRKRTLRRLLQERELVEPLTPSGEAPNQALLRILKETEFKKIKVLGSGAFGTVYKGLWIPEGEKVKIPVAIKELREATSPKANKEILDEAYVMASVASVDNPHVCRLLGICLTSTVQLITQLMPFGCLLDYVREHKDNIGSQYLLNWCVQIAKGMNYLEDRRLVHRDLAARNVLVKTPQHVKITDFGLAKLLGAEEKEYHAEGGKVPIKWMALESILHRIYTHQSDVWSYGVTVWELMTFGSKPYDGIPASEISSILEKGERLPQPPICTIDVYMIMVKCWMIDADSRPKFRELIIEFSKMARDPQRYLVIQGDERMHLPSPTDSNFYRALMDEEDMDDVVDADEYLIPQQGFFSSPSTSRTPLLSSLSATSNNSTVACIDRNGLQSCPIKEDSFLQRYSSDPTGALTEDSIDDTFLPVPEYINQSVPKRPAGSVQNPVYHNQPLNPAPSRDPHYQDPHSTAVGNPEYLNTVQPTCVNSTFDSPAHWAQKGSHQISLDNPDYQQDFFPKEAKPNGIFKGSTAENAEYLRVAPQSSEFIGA
EGFR(D770_N771insSVD) expressing Ba/F3 stable cell line, sequence (P00533 with tags, fused parts or gaps DUP768-770): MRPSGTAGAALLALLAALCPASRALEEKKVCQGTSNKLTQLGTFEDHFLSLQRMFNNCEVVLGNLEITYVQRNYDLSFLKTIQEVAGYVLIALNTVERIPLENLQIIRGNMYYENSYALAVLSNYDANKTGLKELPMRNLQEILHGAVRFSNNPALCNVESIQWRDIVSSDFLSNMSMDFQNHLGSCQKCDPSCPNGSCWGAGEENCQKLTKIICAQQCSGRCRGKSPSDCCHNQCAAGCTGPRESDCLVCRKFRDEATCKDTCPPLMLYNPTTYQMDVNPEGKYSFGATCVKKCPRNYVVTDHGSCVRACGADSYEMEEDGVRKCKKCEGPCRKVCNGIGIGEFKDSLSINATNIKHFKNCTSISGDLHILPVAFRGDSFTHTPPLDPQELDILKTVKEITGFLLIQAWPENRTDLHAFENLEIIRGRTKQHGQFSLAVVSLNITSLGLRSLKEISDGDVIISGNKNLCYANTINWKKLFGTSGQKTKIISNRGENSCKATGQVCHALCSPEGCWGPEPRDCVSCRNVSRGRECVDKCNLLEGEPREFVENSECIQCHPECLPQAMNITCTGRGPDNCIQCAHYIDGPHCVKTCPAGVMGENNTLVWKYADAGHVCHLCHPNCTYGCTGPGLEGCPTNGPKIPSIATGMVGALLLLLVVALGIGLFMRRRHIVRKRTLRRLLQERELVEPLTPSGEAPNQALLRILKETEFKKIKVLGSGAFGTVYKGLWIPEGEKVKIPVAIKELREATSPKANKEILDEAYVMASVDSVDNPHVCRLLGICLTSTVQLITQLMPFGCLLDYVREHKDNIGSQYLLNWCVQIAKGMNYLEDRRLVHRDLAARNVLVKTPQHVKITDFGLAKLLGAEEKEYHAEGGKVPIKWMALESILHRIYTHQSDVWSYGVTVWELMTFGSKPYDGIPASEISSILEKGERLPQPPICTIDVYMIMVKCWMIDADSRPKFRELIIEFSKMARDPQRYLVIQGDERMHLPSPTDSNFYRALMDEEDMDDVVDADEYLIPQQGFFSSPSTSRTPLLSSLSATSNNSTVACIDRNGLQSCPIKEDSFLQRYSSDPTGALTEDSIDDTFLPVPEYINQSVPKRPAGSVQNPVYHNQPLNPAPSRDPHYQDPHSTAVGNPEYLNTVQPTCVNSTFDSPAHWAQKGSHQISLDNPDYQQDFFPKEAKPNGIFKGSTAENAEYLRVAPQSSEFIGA

Row | Compound | IC50 (A431 cells; [3]) | GI50 [1] | GI50 [2] | IC50 (A431 cells; [4])
1 | C=CC(=O)Nc1cccc(Oc2nc(Nc3cnn(C)c3)cnc2Cl)c1 [Compound 154, N-(3-((3-chloro-6-((1-methyl-1H-pyrazol-4-yl)amino)pyrazin-2-yl)oxy)phenyl)acrylamide] | > 10 µM | > 10 µM | > 10 µM | –
2 | C=CC(=O)Nc1ccc(Nc2nc(Nc3cnn(C)c3)ncc2Cl)c(F)c1 [Compound 10, N-(4-((5-chloro-2-((1-methyl-1H-pyrazol-4-yl)amino)pyrimidin-4-yl)amino)-3-fluorophenyl)acrylamide] | 3.01 µM | > 10 µM | > 10 µM | –
3 | Cn1cc(Nc2ncc(-c3ccc(C(F)(F)F)cc3)c(Nc3cc(N)ccc3F)n2)cn1 [Compound 257, N^4-(5-amino-2-fluorophenyl)-N^2-(1-methyl-1H-pyrazol-4-yl)-5-(4-(trifluoromethyl)phenyl)pyrimidine-2,4-diamine] | – | > 10 µM | > 10 µM | > 10 µM
4 | C=CC(=O)Nc1cccc(Oc2nc(Nc3cnn(C)c3)ncc2N2CCN(C)CC2)c1 [Compound 223, N-(3-((2-((1-methyl-1H-pyrazol-4-yl)amino)-5-(4-methylpiperazin-1-yl)pyrimidin-4-yl)oxy)phenyl)acrylamide] | – | 9.7 µM | 9.03 µM | 3.93 µM
5 | Cc1cc(Nc2ncc(Cl)c(Nc3cc(NC(=O)/C=C/CN(C)C)ccc3F)n2)sn1 [Compound 27, (E)-N-(3-((5-chloro-2-((3-methylisothiazol-5-yl)amino)pyrimidin-4-yl)amino)-4-fluorophenyl)-4-(dimethylamino)but-2-enamide] | > 10 µM | 1.99 µM | 2.62 µM | –
6 | C=CC(=O)Nc1ccc(F)c(Nc2nc(Nc3ccc(N(C)C)cc3)ncc2-c2ccc(C(F)(F)F)cc2)c1 [Compound 44, N-(3-((2-((4-(dimethylamino)phenyl)amino)-5-(4-(trifluoromethyl)phenyl)pyrimidin-4-yl)amino)-4-fluorophenyl)acrylamide trifluoroacetate] | 0.484 µM | > 10 µM | > 10 µM | –
7 | C=CC(=O)Nc1ccc(F)c(Nc2nc(Nc3cnoc3)ncc2-c2ccc(C(F)(F)F)cc2)c1 [Compound 225, N-[4-fluoro-3-({2-[(1,2-oxazol-4-yl)amino]-5-[4-(trifluoromethyl)phenyl]pyrimidin-4-yl}amino)phenyl]prop-2-enamide] | – | 2.69 µM | 1.24 µM | 0.637 µM
8 | C=CC(=O)Nc1ccc(OC)c(Oc2nc(Nc3cnn(CCO)c3)ncc2Cl)c1 [Compound 171, N-(3-((5-chloro-2-((1-(2-hydroxyethyl)-1H-pyrazol-4-yl)amino)pyrimidin-4-yl)oxy)-4-methoxyphenyl)acrylamide] | > 10 µM | > 10 µM | > 10 µM | –
9 | C=CC(=O)Nc1cccc(Oc2nc(Nc3cnn(C)c3)ncc2C2=CCN(C)CC2)c1 [Compound 190, N-(3-((5-(1-methyl-1,2,3,6-tetrahydropyridin-4-yl)-2-((1-methyl-1H-pyrazol-4-yl)amino)pyrimidin-4-yl)oxy)phenyl)acrylamide] | 6.76 µM | 9.04 µM | 8.86 µM | –
10 | C=CC(=O)Nc1ccc(F)c(Nc2nc(Nc3cnn(C)c3)ncc2N2CCOCC2)c1 [Compound 222, N-(4-fluoro-3-((2-((1-methyl-1H-pyrazol-4-yl)amino)-5-morpholinopyrimidin-4-yl)amino)phenyl)acrylamide] | – | > 10 µM | > 10 µM | 8.15 µM
11 | C=CC(=O)Nc1ccc(F)c(Nc2nc(Nc3cnn(C)c3)ncc2-c2ccc(S(N)(=O)=O)cc2)c1 [Compound 138, N-(4-fluoro-3-((2-((1-methyl-1H-pyrazol-4-yl)amino)-5-(4-sulfamoylphenyl)pyrimidin-4-yl)amino)phenyl)acrylamide] | > 10 µM | 2.88 µM | 3.14 µM | –
12 | C=CC(=O)Nc1ccc(F)c(Nc2nc(Nc3csc(C)c3)ncc2-c2ccc(C(F)(F)F)cc2)c1 [Compound 217, N-(4-fluoro-3-((2-((5-methylthiophen-3-yl)amino)-5-(4-(trifluoromethyl)phenyl)pyrimidin-4-yl)amino)phenyl)acrylamide] | – | 1.13 µM | 0.916 µM | > 10 µM
13 | C=CC(=O)Nc1ccc(F)c(Nc2nc(Nc3ccccc3OC)ncc2-c2ccc(C(F)(F)F)cc2)c1 [Compound 39, N-(4-fluoro-3-((2-((2-methoxyphenyl)amino)-5-(4-(trifluoromethyl)phenyl)pyrimidin-4-yl)amino)phenyl)acrylamide trifluoroacetate] | 2.93 µM | 8.29 µM | 3.04 µM | –
14 | C=CC(=O)Nc1cc(Nc2nc(Nc3cnn(C)c3)ncc2-c2ccc(C(F)(F)F)cc2)c(F)cn1 [Compound 198, N-[5-fluoro-4-({2-[(1-methyl-1H-pyrazol-4-yl)amino]-5-[4-(trifluoromethyl)phenyl]pyrimidin-4-yl}amino)pyridin-2-yl]prop-2-enamide; trifluoroacetic acid] | – | 2.64 µM | 1.27 µM | 2.14 µM
15 | C=CC(=O)Nc1cc(F)cc(Nc2nc(Nc3cnn(C)c3)ncc2-c2ccc(Br)cc2)c1 [Compound 207, N-(3-((5-(4-bromophenyl)-2-((1-methyl-1H-pyrazol-4-yl)amino)pyrimidin-4-yl)amino)-5-fluorophenyl)acrylamide] | – | 0.031 µM | 0.032 µM | 0.049 µM
16 | C=CC(=O)Nc1ccc(F)c(Nc2nc(-n3ccc(N)cc3=O)ncc2Cl)c1 [Compound 3, N-(3-((2-(4-amino-2-oxopyridin-1(2H)-yl)-5-chloropyrimidin-4-yl)amino)-4-fluorophenyl)acrylamide] | > 10 µM | > 10 µM | > 10 µM | –
17 | C=CC(=O)Nc1ccc(F)c(Nc2nc(Nc3cnn(C)c3)ncc2C(=O)N(C)c2ccccc2)c1 [Compound 49, 4-((5-acrylamido-2-fluorophenyl)amino)-N-methyl-2-((1-methyl-1H-pyrazol-4-yl)amino)-N-phenylpyrimidine-5-carboxamide] | > 10 µM | 3.29 µM | 8.62 µM | –
18 | C=CC(=O)Nc1ccc(F)c(Nc2nc(NC3CCC3)ncc2-c2ccc(C(F)(F)F)cc2)c1 [Compound 181, N-(3-((2-(cyclobutylamino)-5-(4-(trifluoromethyl)phenyl)pyrimidin-4-yl)amino)-4-fluorophenyl)acrylamide] | > 10 µM | > 10 µM | > 10 µM | –
19 | C=CC(=O)Nc1ccc(C(F)(F)F)c(Oc2nc(Nc3cnn(C)c3)ncc2Cl)c1 [Compound 169, N-(3-((5-chloro-2-((1-methyl-1H-pyrazol-4-yl)amino)pyrimidin-4-yl)oxy)-4-(trifluoromethyl)phenyl)acrylamide] | 9.69 µM | 8.95 µM | > 10 µM | –
20 | C=CC(=O)Nc1ccc(F)c(Nc2nc(Nc3cccnc3F)ncc2-c2ccc(C(F)(F)F)cc2)c1 [Compound 38, N-(4-fluoro-3-((2-((2-fluoropyridin-3-yl)amino)-5-(4-(trifluoromethyl)phenyl)pyrimidin-4-yl)amino)phenyl)acrylamide] | 1.36 µM | 0.947 µM | 0.36 µM | –
21 | C=CC(=O)Nc1ccc(F)c(Nc2nc(Nc3cnn(C)c3)cnc2Cl)c1 [Compound 153, N-(3-((3-chloro-6-((1-methyl-1H-pyrazol-4-yl)amino)pyrazin-2-yl)amino)-4-fluorophenyl)acrylamide] | > 10 µM | > 10 µM | > 10 µM | –
22 | C=CC(=O)Nc1ccc(C(=O)Nc2ccccc2)c(Nc2nc(Nc3cnn(C)c3)ncc2Cl)c1 [Compound 163, 2-({5-chloro-2-[(1-methyl-1H-pyrazol-4-yl)amino]pyrimidin-4-yl}amino)-N-phenyl-4-(prop-2-enamido) benzamide] | 8.25 µM | 9.44 µM | > 10 µM | –
23 | C=CC(=O)Nc1ccc(F)c(Nc2nc(Nc3cn(C)cn3)ncc2-c2ccc(C(F)(F)F)cc2)c1 [Compound 214, N-(4-fluoro-3-((2-((1-methyl-1H-imidazol-4-yl)amino)-5-(4-(trifluoromethyl)phenyl)pyrimidin-4-yl)amino)phenyl)acrylamide] | – | 0.543 µM | 0.308 µM | > 10 µM
24 | C=CC(=O)Nc1ccc(F)c(Nc2nc(Nc3cnn(C4CCOCC4)c3)ncc2-c2ccc(C(F)(F)F)cc2)c1 [Compound 220, N-(4-fluoro-3-((2-((1-(tetrahydro-2H-pyran-4-yl)-1H-pyrazol-4-yl)amino)-5-(4-(trifluoromethyl)phenyl)pyrimidin-4-yl)amino)phenyl)acrylamide] | – | 0.211 µM | 0.11 µM | 0.133 µM
25 | C=CC(=O)Nc1cccc(Oc2nc(NC3CC3)ncc2-c2ccc(C(F)(F)F)cc2)c1 [Compound 194, N-(3-((2-(cyclopropylamino)-5-(4-(trifluoromethyl)phenyl)pyrimidin-4-yl)oxy)phenyl)acrylamide] | > 10 µM | > 10 µM | > 10 µM | –
26 | C=CC(=O)Nc1ccc(F)c(Nc2nc(Nc3cnn(C)c3)ncc2-c2ccnc(C)c2)c1 [Compound 80, N-(4-fluoro-3-((2-((1-methyl-1H-pyrazol-4-yl)amino)-5-(2-methylpyridin-4-yl)pyrimidin-4-yl)amino)phenyl)acrylamide] | 0.082 µM | 0.751 µM | 0.256 µM | –
27 | C=CC(=O)Nc1ccc(F)c(Nc2nc(Nc3cc(C)ns3)ncc2-c2ccc(C(F)(F)F)cc2)c1 [Compound 211, N-[4-fluoro-3-({2-[(3-methyl-1,2-thiazol-5-yl)amino]-5-[4-(trifluoromethyl)phenyl]pyrimidin-4-yl}amino)phenyl]prop-2-enamide] | – | 0.667 µM | 0.404 µM | 1.6 µM
